Publication PMC11590367, “Characterization of novel small molecule inhibitors of estrogen receptor-activation function 2 (ER-AF2)” (Breast Cancer Research : BCR, 2024)

How the values were obtained:
[1] = target: T1, recombinant ER-LBD (residues 298–554) (Homo sapiens, UniProt P03372); experiment: Microscale thermophoresis (MST) direct binding; conditions: averaged from three independent assays, 20 µM E2 in buffer, read-out: Kd (binding affinity to ER-LBD)
T1 construct: The ER-LBD (residues 298–554) was cloned into pET28a bacterial expression plasmid; His-tag (N); made in house; host or cells: E. coli BL21-DE3 (with pRARE)
Experimental: The ER-LBD (residues 298–554) was cloned into pET28a bacterial expression plasmid with an N-terminal His-tag. pET28a-His-ER and pRARE were transformed into E. coli (BL21-DE3). Bacteria were grown at 37 [drawing 1] C overnight, and then diluted 1:20 the following day in LB media and grown at 37 [drawing 2] C until the OD600 reached 0.5. Protein expression was induced with 1 mM IPTG, and 50 µM E2 was added to the media. Cells were then grown for 5 h at 25 °C. Bacterial pellets were collected by centrifugation at 13,000 rpm for 7 min. Pellets were resuspended in lysis buffer (25 mM Tris, pH 8.4, 150 mM NaCl, 20 µM E2, 1 mM DTT, 0.1 mM PMSF, cOmplete protease inhibitor (Roche)) then sonicated and centrifuged to obtain the soluble extracts. ER-LBD was purified using affinity chromatography with Ni-NTA agarose resin. The presence of the ER-LBD in eluted fractions was confirmed by SDS-PAGE and validated by mass spectrometry. The eluted protein was further purified by size exclusion chromatography (s75), and fractions containing the ER-LBD protein were pooled and concentrated using Amicon Ultra centrifugal filters (3 K MWCO).
MST was used to validate the direct binding and measure the binding affinities between the lead compounds and the recombinant ER-LBD. […]

[2] = target: T2, full length ERɑ protein, estrogen binding site (EBS) (Homo sapiens, UniProt P03372); experiment: E2-displacement assay (PolarScreen fluorescence polarization); conditions: fluorescence polarization, 1, 10 and 50 µM
T2 construct: full length ERɑ protein was incubated with Fluormone ES2 Green; purchased ThermoFisher A15882
Experimental: The E2 displacement assay was performed using the PolarScreen Estrogen Receptor Alpha Competitor Assay, Green (ThermoFisher A15882) according to the manufacturer’s protocol. In brief, full length ERɑ protein was incubated with Fluormone ES2 Green (Fluormone Tracer) in the ES2 screening buffer in a black bottom 384-well plate (Corning 3573) in the presence of either 1, 10, or 50 µM of test compounds. The final concentrations in the assay were 2% DMSO (consistent with the MST assay), 4.5 nM fluormone, and 40 nM ERɑ protein. 20 µl of the mixture were added to each well, with triplicates performed for each condition. The plate was incubated in the dark at room temperature for 4 h before fluorescence polarization was measured using a Synergy Neo2 plate reader (BioTek).

[3] = target: ER-D538G - SRC3 interaction (Homo sapiens, UniProt P03372, D538G); experiment: Proximity ligation assay, ER-D538G mutant; type: cell-based; conditions: PLA, 10 µM
Experimental: MCF7 or TamR3 cells were starved for 72 h and then seeded onto PEI coated coverslips in a 6-well plate at 1 × 10^5 cells/well. For the E2 experiments, the cells were treated the following day with 10 µM of ER-AF2 inhibitor for 24 h, with E2 added 1 h before fixation. […] 24 h post-treatment, cells were fixed in methanol:acetone (3:1). Coverslips were then permeabilized with 0.05% Triton X-100 for 5 minutes at room temperature. The Duolink In Situ Detection Reagents Red kit from Millipore Sigma (DUO92008) was used for blocking and PLA according to the manufacturer’s protocol. Primary antibodies, Estrogen Receptor alpha antibody (F-10) (sc-8002) and Rabbit anti-SRC3 antibody (A300-348 A), were diluted 1:50 in antibody diluent.

[4] = system: ER target genes (cyclinD1, CDC2, E2F, PR, pS2) in MCF7 cells; experiment: Real-time PCR of ER target genes, MCF7; type: cell-based; conditions: 10 µM, 72 h, E2 stimulation
Experimental: Total RNA was extracted using TRIzol, 72 h post-treatment. cDNA synthesis was conducted using the Maxima First Strand cDNA Synthesis Kit for RT-qPCR (Thermo K1641) according to the manufacturer’s protocol. RT-PCR was conducted on the QuantStudio 7 Pro instrument and expression fold change was calculated using 2−ΔΔCt method normalized to 18s.

[5] = target: T3, AR (ARR3tk-luc) in PC3 cells (Homo sapiens, UniProt P10275); experiment: Nuclear receptor luciferase transcriptional assay, AR; type: cell-based; conditions: 1 or 5 µM, 0.1 nM R1881, PC3 cells
T3 construct: expressed in transfected cells; host or cells: PC3 cells
Experimental: (§1) PC3 cells (androgen receptor (AR)-, glucocorticoid receptor (GR)[…], progesterone receptor (PR)-, ER-) were starved for 72 h then seeded into a 96-well plate at a density of 5,000 cells/well. 24 h later, cells were transfected with either ER, AR, GR, or PR and a luciferase plasmid (ERE-luc for ER and ARR3tk-luc for AR, GR, and PR). 24 h post-transfection, cells were simultaneously stimulated with 1 nM E2 for ER, 0.1 nM R1881 for AR, 1 nM Dexamethasone for GR, or 1 nM Levonorgestrel for PR, and treated with 1 or 5 µM of VPC-260724 24 h post-treatment, cells were lysed with 50 µl of passive lysis buffer (Promega #E1910). 20 µl of lysate was transferred to a white flat-bottom 96-well plate (Corning Life Sciences Cat#3912). Luminescence readings were obtained using the TECAN M200 Pro plate reader following the addition of 50 µl of luciferase reagent (Promega Luciferase Assay System E1500).

[6] = target: T4, GR (ARR3tk-luc) in PC3 cells (Homo sapiens, UniProt P04150); experiment: Nuclear receptor luciferase transcriptional assay, GR; type: cell-based; conditions: 1 or 5 µM, 1 nM Dexamethasone
T4 construct: expressed in transfected cells; host or cells: PC3 cells
Experimental: as §1

[7] = target: T5, PR (ARR3tk-luc) in PC3 cells (Homo sapiens, UniProt P06401); experiment: Nuclear receptor luciferase transcriptional assay, PR; type: cell-based; conditions: 1 or 5 µM, 1 nM Levonorgestrel
T5 construct: expressed in transfected cells; host or cells: PC3 cells
Experimental: as §1

T2 sequence (P03372 whole entry): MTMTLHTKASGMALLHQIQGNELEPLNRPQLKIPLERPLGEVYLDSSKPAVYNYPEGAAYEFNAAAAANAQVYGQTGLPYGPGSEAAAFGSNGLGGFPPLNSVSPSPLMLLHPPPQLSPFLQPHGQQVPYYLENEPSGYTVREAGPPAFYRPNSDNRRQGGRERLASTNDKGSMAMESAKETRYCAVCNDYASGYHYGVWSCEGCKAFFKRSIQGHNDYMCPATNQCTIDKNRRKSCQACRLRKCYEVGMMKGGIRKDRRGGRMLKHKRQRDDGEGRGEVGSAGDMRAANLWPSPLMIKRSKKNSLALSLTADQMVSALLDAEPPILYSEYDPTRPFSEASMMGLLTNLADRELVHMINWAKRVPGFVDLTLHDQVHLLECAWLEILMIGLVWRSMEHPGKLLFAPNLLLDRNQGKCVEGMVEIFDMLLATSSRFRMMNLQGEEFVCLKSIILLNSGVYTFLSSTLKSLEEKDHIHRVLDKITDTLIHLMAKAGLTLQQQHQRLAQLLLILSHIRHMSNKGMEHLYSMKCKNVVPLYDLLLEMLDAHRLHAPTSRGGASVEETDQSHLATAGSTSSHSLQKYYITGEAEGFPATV
T1 sequence (P03372 298-554): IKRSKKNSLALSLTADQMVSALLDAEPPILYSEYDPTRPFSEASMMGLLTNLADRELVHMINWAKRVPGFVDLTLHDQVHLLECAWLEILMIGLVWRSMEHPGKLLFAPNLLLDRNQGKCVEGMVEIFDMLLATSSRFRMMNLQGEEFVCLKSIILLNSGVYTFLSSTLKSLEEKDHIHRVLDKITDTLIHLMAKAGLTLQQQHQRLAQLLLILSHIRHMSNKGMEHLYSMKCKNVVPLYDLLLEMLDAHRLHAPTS
T5 sequence (P06401 whole entry): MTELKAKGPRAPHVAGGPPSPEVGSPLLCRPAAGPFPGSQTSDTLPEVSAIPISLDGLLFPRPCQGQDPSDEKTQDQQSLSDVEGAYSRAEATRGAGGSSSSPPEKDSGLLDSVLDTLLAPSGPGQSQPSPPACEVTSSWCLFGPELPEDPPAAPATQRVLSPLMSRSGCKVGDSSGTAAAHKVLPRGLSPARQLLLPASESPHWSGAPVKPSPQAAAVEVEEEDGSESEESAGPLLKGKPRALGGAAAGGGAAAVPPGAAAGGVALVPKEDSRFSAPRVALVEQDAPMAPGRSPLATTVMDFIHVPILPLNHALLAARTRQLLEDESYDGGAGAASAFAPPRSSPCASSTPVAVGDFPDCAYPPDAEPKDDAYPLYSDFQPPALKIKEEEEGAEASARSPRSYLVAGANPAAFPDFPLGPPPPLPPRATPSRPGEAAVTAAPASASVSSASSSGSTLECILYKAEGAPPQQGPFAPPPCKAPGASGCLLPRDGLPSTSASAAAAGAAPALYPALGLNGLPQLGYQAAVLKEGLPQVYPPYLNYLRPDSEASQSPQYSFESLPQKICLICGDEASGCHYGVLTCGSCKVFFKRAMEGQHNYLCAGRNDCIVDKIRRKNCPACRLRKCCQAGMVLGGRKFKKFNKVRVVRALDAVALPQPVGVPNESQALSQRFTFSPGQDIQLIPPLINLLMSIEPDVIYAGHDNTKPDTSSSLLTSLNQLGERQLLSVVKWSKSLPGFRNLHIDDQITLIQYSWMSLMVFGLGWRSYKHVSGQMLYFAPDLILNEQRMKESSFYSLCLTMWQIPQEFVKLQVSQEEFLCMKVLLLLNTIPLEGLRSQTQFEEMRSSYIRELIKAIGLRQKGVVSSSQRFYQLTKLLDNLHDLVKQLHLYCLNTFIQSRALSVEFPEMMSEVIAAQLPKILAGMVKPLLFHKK
T4 sequence (P04150 whole entry): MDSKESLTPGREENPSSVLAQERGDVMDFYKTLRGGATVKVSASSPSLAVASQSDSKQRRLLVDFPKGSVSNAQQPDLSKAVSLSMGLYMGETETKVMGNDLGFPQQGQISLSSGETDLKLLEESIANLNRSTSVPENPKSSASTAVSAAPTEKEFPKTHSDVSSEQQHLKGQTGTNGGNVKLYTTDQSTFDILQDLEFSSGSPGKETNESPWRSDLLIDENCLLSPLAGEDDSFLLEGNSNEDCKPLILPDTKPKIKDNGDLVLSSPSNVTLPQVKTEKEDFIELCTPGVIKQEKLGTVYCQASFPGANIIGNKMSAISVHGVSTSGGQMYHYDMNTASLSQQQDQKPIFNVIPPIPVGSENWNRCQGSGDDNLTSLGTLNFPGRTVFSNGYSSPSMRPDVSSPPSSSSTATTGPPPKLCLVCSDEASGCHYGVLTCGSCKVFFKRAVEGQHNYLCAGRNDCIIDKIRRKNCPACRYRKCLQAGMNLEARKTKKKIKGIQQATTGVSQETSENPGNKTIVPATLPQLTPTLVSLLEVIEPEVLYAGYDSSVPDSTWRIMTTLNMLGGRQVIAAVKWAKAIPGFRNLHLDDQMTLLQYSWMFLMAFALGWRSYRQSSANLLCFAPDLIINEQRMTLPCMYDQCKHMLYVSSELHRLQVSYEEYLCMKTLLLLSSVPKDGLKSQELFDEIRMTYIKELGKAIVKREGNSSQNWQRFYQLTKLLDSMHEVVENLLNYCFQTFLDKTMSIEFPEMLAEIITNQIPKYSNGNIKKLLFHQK
Chain of ER-D538G - SRC3 interaction (P03372 whole entry D538G): as the sequence (P03372 whole entry) above, with D538G counted along it
T3 sequence (P10275 whole entry): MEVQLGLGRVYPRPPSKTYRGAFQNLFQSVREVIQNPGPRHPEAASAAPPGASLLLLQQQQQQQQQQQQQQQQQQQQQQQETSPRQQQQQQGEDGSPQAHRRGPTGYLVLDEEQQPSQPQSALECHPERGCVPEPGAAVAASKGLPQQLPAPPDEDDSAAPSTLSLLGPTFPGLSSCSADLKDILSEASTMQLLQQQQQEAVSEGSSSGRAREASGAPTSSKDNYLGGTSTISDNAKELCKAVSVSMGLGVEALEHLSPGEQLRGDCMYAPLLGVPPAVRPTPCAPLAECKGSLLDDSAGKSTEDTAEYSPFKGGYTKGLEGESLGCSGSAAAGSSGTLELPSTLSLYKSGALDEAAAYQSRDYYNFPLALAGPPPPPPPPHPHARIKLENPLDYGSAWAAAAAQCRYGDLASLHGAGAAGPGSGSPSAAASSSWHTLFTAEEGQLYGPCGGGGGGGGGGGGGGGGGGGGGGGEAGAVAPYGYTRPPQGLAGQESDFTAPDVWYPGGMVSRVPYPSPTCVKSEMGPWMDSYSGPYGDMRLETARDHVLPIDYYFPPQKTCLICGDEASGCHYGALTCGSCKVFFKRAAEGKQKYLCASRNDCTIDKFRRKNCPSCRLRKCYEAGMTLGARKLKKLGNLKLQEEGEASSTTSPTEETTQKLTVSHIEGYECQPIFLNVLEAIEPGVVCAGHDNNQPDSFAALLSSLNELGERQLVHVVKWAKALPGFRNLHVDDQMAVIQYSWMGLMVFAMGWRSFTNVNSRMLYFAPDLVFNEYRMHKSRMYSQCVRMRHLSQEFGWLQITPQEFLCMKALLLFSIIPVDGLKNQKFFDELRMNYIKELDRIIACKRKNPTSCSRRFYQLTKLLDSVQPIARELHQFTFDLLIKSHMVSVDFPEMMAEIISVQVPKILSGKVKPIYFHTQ

Cc1cccn2c(CNCc3cccc(N(C)C)n3)cnc12 [VPC-260724]
Kd [1]: 85.2 ± 32.7 µM
Displacement of fluormone (fluorescent E2) from EBS [2]: did not displace the fluormone at any of the tested concentrations
Interaction between SRC3 and ER-D538G [3]: inhibited the interaction
mRNA levels of ER target genes, MCF7 [4]: significant decrease
Transcriptional activity of AR [5]: did not significantly impact
Transcriptional activity of GR [6]: did not significantly impact
Transcriptional activity of PR [7]: did not significantly impact
